In PMC6096477, “Structure of a Talaromyces pinophilus GH62 arabinofuranosidase in complex with AraDNJ at 1.25 Å resolution” (Acta Crystallographica. Section F, Structural Biology …, 2018):

Target: T1, Talaromyces pinophilus GH62 arabinofuranosidase (Talaromyces pinophilus, UniProt A0A2H5BN17)
T1 construct: single-module GH62 enzyme, secreted from Aspergillus oryzae; about 35 kDa; amino-terminal residue Ser24; chain traced 25-325; 2 subunits in asymmetric unit; no tag mentioned
Assay: isothermal titration calorimetry
Assay type: binding

T1 sequence (A0A2H5BN17 entry or part of it): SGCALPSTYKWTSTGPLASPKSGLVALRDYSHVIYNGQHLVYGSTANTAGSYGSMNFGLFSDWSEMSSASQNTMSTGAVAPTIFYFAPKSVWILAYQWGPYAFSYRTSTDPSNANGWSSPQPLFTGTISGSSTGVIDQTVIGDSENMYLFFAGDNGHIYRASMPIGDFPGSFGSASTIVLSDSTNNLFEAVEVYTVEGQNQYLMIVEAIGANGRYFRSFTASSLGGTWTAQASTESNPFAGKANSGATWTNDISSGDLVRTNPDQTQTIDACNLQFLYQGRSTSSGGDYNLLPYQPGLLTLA

- Kd: 24 ± 0.4 µM
SMILES: OC[C@@H]1NC[C@H](O)[C@H]1O [AraDNJ, 1,4-dideoxy-l,4-imino-L-arabinitol]
